# Calls of active or inactive are those of the source.
# What was measured:
# Nonstructural protein 1 = Nonstructural protein 1 (Influenza A virus, UniProt Q194T2); assay type: functional, Influenza A virus (A/California/07/2009(H1N1))
# [1] = biological target: T1, Carboxy-terminal domain RNA polymerase II polypeptide A small phosphatase 1 (Homo sapiens, UniProt Q9GZU7); assay: CTDSP1 inhibitors, concentration-response, biochemical, absorbance readout, ultra-high-throughput screen actives (AID 540297); assay type: functional
# T1 sequence (Q9GZU7 whole entry): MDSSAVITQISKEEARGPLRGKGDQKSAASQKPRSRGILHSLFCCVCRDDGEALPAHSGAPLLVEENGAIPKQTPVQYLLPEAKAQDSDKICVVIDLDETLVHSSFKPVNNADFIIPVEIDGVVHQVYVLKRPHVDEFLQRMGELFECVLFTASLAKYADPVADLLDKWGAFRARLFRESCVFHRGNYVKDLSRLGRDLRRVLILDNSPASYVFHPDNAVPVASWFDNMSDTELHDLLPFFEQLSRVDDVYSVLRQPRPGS
# Protein skinhead-1 = biological target: T2, Protein skinhead-1 (Caenorhabditis elegans, UniProt P34707); assay type: functional
# T2 sequence (P34707 whole entry): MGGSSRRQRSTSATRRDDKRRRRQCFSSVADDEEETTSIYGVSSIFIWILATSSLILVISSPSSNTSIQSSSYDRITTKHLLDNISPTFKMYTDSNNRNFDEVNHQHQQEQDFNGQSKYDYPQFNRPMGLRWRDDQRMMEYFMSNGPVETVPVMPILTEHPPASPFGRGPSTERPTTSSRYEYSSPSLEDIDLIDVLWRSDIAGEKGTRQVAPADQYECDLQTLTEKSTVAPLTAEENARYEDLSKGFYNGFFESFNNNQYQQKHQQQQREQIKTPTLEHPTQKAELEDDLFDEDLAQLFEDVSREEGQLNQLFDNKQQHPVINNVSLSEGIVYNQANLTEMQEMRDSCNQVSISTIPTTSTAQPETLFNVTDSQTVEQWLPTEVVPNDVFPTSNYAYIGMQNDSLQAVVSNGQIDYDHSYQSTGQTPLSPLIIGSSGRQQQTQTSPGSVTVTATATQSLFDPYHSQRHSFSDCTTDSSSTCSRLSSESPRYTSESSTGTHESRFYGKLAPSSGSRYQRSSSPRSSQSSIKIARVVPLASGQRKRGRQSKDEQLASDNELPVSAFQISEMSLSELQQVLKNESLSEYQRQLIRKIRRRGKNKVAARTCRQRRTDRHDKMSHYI
# Streptokinase A = biological target: T3, Streptokinase A (Streptococcus pyogenes serotype M1, UniProt P10520); assay: viability-normalized secreted streptokinase activity reduction – plasminogen activation absorbance, OD405, dose response (AID 1914); assay type: functional, Streptococcus pyogenes M1 GAS;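 also: secreted streptokinase activity via plasminogen activation per viability signal from cell pellet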
# T3 sequence (P10520 whole entry): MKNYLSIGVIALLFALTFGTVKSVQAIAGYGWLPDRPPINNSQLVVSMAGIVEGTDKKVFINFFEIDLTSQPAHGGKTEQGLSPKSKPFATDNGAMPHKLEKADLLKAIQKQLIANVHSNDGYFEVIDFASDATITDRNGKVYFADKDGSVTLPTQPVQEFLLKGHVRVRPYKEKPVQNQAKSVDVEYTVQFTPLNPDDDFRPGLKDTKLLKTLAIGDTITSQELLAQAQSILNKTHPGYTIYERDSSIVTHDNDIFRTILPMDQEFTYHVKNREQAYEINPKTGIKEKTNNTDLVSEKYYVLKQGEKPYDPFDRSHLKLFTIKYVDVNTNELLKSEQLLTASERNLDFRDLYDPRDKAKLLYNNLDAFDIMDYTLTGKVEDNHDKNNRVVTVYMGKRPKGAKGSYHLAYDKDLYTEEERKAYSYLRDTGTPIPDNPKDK
# Streptococcus = assay: GAS UMAA2166 growth inhibition – luminescence, BacTiterGlo, counter-screen for streptokinase expression inhibitor project, dose response (AID 1915); assay type: functional, organism-based;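 also: potency for reduction of bacterial viability or growth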
# [2] = biological target: T4, Heat shock factor protein 1 (Mus musculus, UniProt P38532); assay: enhancement of HSF1-driven luciferase signal – cell-based, NIH3T3, luminescence, dose retest, confirmation (AID 435004); assay type: functional;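 also: stress induced by proteasome inhibitor MG132 added 30 min after compound; luciferase reporter driven by HSF1 response element in NIH3T3 cells; actives raise luminescence as potentiators of the MG132 stress response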
# T4 sequence (P38532 whole entry): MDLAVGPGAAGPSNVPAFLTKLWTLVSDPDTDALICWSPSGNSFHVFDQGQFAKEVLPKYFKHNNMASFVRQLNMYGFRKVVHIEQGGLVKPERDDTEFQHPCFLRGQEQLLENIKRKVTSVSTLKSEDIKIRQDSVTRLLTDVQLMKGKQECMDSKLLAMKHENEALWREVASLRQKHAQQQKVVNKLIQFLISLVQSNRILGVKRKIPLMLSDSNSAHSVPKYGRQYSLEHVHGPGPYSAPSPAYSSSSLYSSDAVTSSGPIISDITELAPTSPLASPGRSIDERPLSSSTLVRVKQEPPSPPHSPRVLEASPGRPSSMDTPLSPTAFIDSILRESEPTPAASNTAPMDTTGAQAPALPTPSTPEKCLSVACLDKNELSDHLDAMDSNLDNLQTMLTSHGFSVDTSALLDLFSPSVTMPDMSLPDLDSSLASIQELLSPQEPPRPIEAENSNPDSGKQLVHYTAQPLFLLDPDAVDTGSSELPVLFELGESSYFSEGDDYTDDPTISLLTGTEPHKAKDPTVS
# Genome polyprotein = Genome polyprotein (dengue virus type 2, UniProt P29990); assay: flavivirus cap methylation enzyme inhibition – biochemical, confirmation dose response, primary screen (AID 588689); assay type: functional
# Sequence of Genome polyprotein (P29990 2492-3391 limits assumed): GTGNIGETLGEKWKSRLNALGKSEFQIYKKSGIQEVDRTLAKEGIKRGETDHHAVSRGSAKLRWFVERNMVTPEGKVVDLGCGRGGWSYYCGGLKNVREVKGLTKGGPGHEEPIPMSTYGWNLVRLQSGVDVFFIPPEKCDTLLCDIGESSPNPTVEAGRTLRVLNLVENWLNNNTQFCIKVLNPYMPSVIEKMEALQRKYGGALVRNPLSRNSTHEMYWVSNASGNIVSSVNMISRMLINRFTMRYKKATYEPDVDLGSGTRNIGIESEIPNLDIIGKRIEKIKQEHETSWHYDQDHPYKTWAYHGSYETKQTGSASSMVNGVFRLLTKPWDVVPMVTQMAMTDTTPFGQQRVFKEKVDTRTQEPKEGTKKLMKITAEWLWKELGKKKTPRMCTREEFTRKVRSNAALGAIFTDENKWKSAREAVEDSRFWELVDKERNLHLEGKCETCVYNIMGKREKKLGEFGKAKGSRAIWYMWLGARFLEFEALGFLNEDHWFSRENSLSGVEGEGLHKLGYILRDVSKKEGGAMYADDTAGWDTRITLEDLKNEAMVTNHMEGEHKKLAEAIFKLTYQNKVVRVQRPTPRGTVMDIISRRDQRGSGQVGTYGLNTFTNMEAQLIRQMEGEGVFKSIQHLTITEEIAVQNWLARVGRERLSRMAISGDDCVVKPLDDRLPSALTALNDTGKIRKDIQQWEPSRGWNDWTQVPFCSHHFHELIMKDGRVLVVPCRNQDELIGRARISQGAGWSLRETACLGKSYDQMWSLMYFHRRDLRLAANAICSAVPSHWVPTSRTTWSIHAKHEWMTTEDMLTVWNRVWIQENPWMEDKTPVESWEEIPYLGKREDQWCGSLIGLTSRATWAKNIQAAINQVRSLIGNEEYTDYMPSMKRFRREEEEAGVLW
# [3] = blockers of HIV-1 ZM109 envelope-driven cell-cell fusion – HeLa effector, CEM target cells, luciferase, cherry-pick, dose response (AID 652058); assay type: functional, cell-based;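 also: luciferase signal from HIV-1 Env mediated cell-cell fusion of effector and target cells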
# [4] = blockers of HIV-1 envelope-mediated cell-cell fusion – cherry-pick, dose response (AID 652057); assay type: functional, cell-based
# [5] = HIV-1 AD8 envelope cell-cell fusion blockers – cherry-pick, dose response (AID 652062); assay type: functional, cell-based;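 also: luciferase signal from cell-cell fusion driven by HIV-1 clade B AD8 Env; potency is for inhibitors of fusion seen as a drop in luminescence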
# [6] = off-target signal loss in HeLa-CEM21 co-culture – HeLa F-luc CTL cells, cherry-picked, counter-screen for HIV-1 Env fusion inhibitor project, dose response (AID 652040); assay type: functional, cell-based;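 also: potency for signal decrease marking cytotoxic or nonspecific inhibition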
# cells [7] = assay type: functional, cell-based
# cells [8] = assay type: functional, cell-based; remark: listed apart in the source
# [9] = Luminescence Cell-Based Dose Response HTS to Identify Inhibitors of 5'UTR Stem-Loop Driven Prion Protein mRNA Translation in H4 Neuroglioblastoma Cells. [Related pubchem assays: 1827 (Project Summary), 1813 (Primary HTS)]; assay type: functional
# [10] = luciferase reporter signal suppression in cells – H4 neuroglioma cells, luminescence, dose response (AID 1990); assay type: functional, cell-based
# [11] = alpha-synuclein stem-loop luciferase translation blockers – H4 neuroglioma cells, luminescence, confirmation (AID 1988); assay type: functional, cell-based
# [12] = biological target: T5, Polyadenylate-binding protein 1 (Homo sapiens, UniProt P11940); assay: MLLE binding blockers, Cy5 peptide tracer – biochemical, fluorescence polarization, Cy5-PAM2 peptide, secondary, miRNA deadenylation inhibitor project, dose response (AID 602260); assay type: functional; details: read-out: IC50_Mean
# T5 sequence (P11940 whole entry, the tested form may be a part): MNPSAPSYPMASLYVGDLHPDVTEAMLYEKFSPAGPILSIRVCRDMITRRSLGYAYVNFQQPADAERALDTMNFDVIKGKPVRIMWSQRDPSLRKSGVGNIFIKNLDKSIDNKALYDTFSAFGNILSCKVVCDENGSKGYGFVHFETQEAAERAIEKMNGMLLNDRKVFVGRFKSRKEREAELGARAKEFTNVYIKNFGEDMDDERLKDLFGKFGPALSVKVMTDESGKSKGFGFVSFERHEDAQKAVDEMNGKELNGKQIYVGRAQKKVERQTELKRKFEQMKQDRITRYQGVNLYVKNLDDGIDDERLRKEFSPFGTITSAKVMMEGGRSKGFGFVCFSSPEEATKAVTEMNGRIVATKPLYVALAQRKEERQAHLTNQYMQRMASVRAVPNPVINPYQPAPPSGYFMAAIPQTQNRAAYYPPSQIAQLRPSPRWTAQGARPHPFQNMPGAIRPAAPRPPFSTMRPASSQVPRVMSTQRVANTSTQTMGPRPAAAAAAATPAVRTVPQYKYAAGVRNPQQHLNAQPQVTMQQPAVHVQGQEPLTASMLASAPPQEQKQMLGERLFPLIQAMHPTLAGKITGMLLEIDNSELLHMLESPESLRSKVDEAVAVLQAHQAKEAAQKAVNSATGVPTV
# [13] = biological target: T5, Polyadenylate-binding protein 1; assay: MLLE domain peptide-binding blockers, IC50 – biochemical, fluorescence polarization, FITC-PAM2 peptide, dose response (AID 602259); assay type: functional; details: read-out: IC50_Mean
# Paired box protein Pax-8 = Paired box protein Pax-8 (Homo sapiens, UniProt Q06710); assay: PAX8 transcriptional activity inhibition in RMG-I – RMG-I cells, luciferase, cherry-pick, dose response (AID 687027); assay type: functional, cell-based;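 also: luciferase reporter driven by Pax8 target thyroperoxidase promoter measured by SteadyGlo luminescence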
# Sequence of Paired box protein Pax-8 (Q06710 whole entry): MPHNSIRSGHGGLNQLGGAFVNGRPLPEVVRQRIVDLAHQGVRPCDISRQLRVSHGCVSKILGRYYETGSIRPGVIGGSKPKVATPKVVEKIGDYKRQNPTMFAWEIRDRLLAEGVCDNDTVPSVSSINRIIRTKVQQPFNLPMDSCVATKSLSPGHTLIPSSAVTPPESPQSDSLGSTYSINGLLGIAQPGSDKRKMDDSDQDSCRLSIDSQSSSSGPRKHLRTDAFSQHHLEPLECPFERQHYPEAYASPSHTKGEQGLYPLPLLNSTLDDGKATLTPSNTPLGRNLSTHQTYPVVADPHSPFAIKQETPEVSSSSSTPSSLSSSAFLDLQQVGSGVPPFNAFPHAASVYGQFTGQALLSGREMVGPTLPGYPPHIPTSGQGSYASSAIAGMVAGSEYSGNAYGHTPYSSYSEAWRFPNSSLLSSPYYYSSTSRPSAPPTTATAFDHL
# [14] = biological target: T6, Histone-lysine N-methyltransferase NSD2 (Homo sapiens, UniProt O96028); assay type: biochemical
# T6 sequence (O96028 whole entry): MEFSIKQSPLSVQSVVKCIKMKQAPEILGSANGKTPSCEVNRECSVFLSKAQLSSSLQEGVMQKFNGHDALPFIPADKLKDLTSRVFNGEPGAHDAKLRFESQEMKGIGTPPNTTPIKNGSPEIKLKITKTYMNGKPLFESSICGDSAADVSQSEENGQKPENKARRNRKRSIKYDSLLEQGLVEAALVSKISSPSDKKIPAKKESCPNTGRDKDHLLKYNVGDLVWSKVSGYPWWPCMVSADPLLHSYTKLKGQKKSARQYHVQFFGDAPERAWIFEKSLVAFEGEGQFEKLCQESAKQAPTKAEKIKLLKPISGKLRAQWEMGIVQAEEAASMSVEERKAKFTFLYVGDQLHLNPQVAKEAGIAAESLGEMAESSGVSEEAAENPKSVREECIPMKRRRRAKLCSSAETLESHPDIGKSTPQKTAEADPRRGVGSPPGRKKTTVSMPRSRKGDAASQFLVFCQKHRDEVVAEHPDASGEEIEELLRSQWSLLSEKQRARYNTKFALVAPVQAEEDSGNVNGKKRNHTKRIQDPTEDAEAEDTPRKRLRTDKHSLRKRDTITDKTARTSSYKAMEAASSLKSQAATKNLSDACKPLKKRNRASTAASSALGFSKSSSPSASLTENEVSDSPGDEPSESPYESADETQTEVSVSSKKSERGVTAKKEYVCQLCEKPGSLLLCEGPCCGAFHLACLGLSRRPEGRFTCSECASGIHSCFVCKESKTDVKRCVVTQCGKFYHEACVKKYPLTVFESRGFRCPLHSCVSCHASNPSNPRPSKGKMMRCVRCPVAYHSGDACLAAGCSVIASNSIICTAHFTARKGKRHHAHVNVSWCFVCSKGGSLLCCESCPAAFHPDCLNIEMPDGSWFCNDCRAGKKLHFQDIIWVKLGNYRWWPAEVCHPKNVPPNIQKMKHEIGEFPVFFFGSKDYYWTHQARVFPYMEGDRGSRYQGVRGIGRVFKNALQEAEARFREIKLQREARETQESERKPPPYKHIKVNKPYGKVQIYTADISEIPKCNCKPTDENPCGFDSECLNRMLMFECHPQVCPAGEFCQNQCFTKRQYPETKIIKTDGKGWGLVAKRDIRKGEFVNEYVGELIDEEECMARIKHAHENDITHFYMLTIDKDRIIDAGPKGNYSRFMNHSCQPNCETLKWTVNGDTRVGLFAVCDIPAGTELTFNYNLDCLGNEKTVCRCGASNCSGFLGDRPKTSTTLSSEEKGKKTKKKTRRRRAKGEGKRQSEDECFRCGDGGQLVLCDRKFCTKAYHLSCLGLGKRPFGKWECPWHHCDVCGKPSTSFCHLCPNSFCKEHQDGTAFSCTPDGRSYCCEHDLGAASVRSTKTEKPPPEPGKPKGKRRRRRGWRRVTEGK
# Sequence of Nonstructural protein 1 (Q194T2 whole entry, the tested form may be a part): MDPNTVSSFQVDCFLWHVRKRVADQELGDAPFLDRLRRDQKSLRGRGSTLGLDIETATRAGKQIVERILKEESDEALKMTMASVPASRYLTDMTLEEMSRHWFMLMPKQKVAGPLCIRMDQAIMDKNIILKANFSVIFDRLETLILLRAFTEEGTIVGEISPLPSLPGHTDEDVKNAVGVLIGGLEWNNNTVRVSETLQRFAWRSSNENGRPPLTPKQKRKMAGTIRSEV
smiles,measurement,setting,value
O=C1c2ccccc2C(=O)c2c1cccc2N1CCN(Cc2ccccc2)CC1,IC50,Nonstructural protein 1,7.08 µM (active)
COc1cc2cnc(-c3ccccc3)c(-c3cc(OC)c(OC)c(OC)c3)c2cc1OC,IC50,[1],67.2 µM (active)
Oc1cccc2c(-c3nn[nH]n3)ccnc12,IC50,Nonstructural protein 1,7.24 µM (active)
O=C(Nc1cccc([N+](=O)[O-])c1)c1cnccn1,IC50,[1],5.88 µM (active)
CCCCNC(=O)COC(=O)c1cc(S(=O)(=O)N2CCCCCC2)ccc1OC,IC50,Protein skinhead-1,> 100 µM (inactive)
CN(C)c1nc(SCc2ccccc2Cl)nc2c1CCCC2,IC50,Protein skinhead-1,> 100 µM (inactive)
same,EC50,Streptokinase A,14 µM (active)
same,EC50,Streptococcus,> 150 µM (not active)
Cc1cc2ccccn2c1C(=O)c1cc([N+](=O)[O-])cc([N+](=O)[O-])c1,IC50,Nonstructural protein 1,40.7 µM (active)
O=C(O)c1cc([N+](=O)[O-])c(NCCC2=CCCCC2)c([N+](=O)[O-])c1,EC50,[2],> 260 µM (inactive)
same,IC50,Genome polyprotein,72.8 µM (active)
Cc1ccc(OCCCCNC(C)c2ccccc2)c(C)c1 (stereo unspecified),AC50,[3],5.29 µM (active)
same,AC50,[4],3.69 µM (active)
same,AC50,[5],5.36 µM (active)
same,AC50,[6],2.94 µM (active)
O=C(COC(=O)c1cccc(S(=O)(=O)N2CCOCC2)c1)Nc1ncc(C(F)(F)F)cc1Cl,EC50,cells [7],> 350 µM (not active)
same,EC50,cells [8],> 350 µM (not active)
same,IC50,Protein skinhead-1,> 100 µM (inactive)
COc1ccc(CC(=O)Nc2nnc(SCc3ccccc3)s2)cc1S(=O)(=O)N1CCOCC1,IC50,Protein skinhead-1,> 100 µM (inactive)
O=C(NCc1ccco1)c1ccc(Cn2c(=O)c3ccccc3n(Cc3cccc(Cl)c3)c2=O)cc1,EC50,[9],> 120 µM (not active)
same,AC50,[3],2.76 µM (active)
same,AC50,[4],1.83 µM (active)
same,AC50,[5],1.34 µM (active)
same,EC50,[10],11.8 µM (active)
same,AC50,[6],1.78 µM (active)
same,EC50,[11],16.5 µM (active)
O=C(CSc1nc(O)c(Cc2ccccc2)c(O)n1)Nc1nnc(SCc2ccccc2)s1,IC50,[12],> 66 µM (inactive)
same,IC50,[13],> 66 µM (inactive)
same,IC50,Genome polyprotein,43.3 µM (active)
Cc1ccc(NC(=O)N2CCC(NC(=O)c3cccc(C)c3)CC2)cc1,IC50,[1],10.5 µM (active)
same,EC50,cells [7],> 350 µM (not active)
same,EC50,cells [8],> 350 µM (not active)
C=C(C)c1cccc(C(C)(C)NC(=O)Nc2ccc(Cl)cn2)c1,AC50,[3],0.604 µM (active)
same,AC50,[4],50.7 µM (active)
same,AC50,[5],12.8 µM (active)
same,AC50,[6],16.5 µM (active)
CSc1ccc(-c2nnn(Cc3ccc(Br)cc3)n2)cc1,IC50,Protein skinhead-1,> 100 µM (inactive)
CCOC(=O)C1=CN(Cc2cccc(-c3cccnc3)c2)S(=O)(=O)N(C)C1C (stereo unspecified),AC50,Paired box protein Pax-8,59.2 µM (active)
CCCCCCNc1c([N+](=O)[O-])cc(C)cc1[N+](=O)[O-],AC50,[14],> 20 µM (inactive)
Nc1ncc(-c2ccc(-c3ccccc3)cc2F)cc1-c1ccccc1F,IC50,Protein skinhead-1,> 100 µM (inactive)
O=C(O)c1ccccc1N=N/C(=N/Nc1cc(S(=O)(=O)O)ccc1O)c1ccccc1,IC50,Nonstructural protein 1,21.9 µM (active)
same,AC50,[14],> 20 µM (inactive)
same,IC50,Genome polyprotein,19.1 µM (active)
C[C@@H]1CCCCO[C@H](CN(C)C(=O)Nc2ccc(C(F)(F)F)cc2)[C@H](C)CN([C@@H](C)CO)C(=O)c2cc(NS(=O)(=O)c3ccc(Cl)cc3)ccc2O1,AC50,Paired box protein Pax-8,16.4 µM (active)
COc1cccc(/C=N/NC(=O)C(=O)NCc2cccnc2)c1O,IC50,Nonstructural protein 1,8.2 µM (active)
OC[C@H]1O[C@@H](n2cnc3c(NCc4ccco4)ncnc32)[C@H](O)[C@@H]1O [KINETIN RIBOSIDE],AC50,Paired box protein Pax-8,2.25 µM (active)

# From ChEMBL document CHEMBL1201862, “PubChem BioAssay data set” (2004)
